From ChEMBL document CHEMBL1132877, “Novel alpha-glucosidase inhibitors with a tetrachlorophthalimide skeleton” (Bioorg Med Chem Lett, 2000)

Assays:
[1] = Inhibition of Alpha-glucosidase activity.
[2] = Compound was evaluated for binding affinity towards Alpha-glucosidase analyzed by the surface plasma resonance (SPR) method
[3] = Compound was tested for the inhibition of Alpha-glucosidase
[4] = Inhibitory effect on Alpha-glucosidase activity

IC50 [1] [µM]	Ka [2] [M⁻¹]	IC50 [3] [nM]	IC50 [4] [µM]	Structure (SMILES)
7	–	–	–	O=C1c2c(Cl)c(Cl)c(Cl)c(Cl)c2C(=O)N1CCCCCCc1ccccc1
4.5	33000	–	–	O=C1c2c(Cl)c(Cl)c(Cl)c(Cl)c2C(=O)N1CCCc1ccccc1
> 500	–	–	–	O=C1c2ccccc2C(=O)N1c1ccccc1 [N-PHENYL-PHTHALIMIDE]
> 500	–	–	–	O=C1c2ccccc2C(=O)N1CCCc1ccccc1
–	22000	2000	–	O=C1c2c(Cl)c(Cl)c(Cl)c(Cl)c2C(=O)N1CCCCc1ccccc1
> 500	–	–	–	O=C1c2ccccc2C(=O)N1Cc1ccccc1
> 500	–	–	–	O=C1c2ccc(O)cc2C(=O)N1c1ccccc1
23.7	–	–	–	O=C1c2ccc([N+](=O)[O-])cc2C(=O)N1c1ccccc1
3.5	15000	–	–	O=C1c2c(Cl)c(Cl)c(Cl)c(Cl)c2C(=O)N1CCCCCc1ccccc1
> 500	–	–	–	O=C1c2cccc(O)c2C(=O)N1c1ccccc1
> 500	–	–	–	O=C1c2ccccc2C(=O)N1CCc1ccccc1
10.9	15000	–	–	O=C1c2c(Cl)c(Cl)c(Cl)c(Cl)c2C(=O)N1Cc1ccccc1
25.9	–	–	–	O=C1c2cccc([N+](=O)[O-])c2C(=O)N1c1ccccc1
6	25000	–	–	O=C1c2c(Cl)c(Cl)c(Cl)c(Cl)c2C(=O)N1CCc1ccccc1
> 500	–	–	–	Nc1cccc2c1C(=O)N(c1ccccc1)C2=O
47.6	210000	–	–	OC[C@H]1NC[C@H](O)[C@@H](O)[C@@H]1O [DUVOGLUSTAT]
2.6	140000	–	17.9	O=C1c2c(Cl)c(Cl)c(Cl)c(Cl)c2C(=O)N1c1ccccc1
> 500	–	–	–	Nc1ccc2c(c1)C(=O)N(c1ccccc1)C2=O
